In article PMC5077990, “P53 activation inhibits all types of hematopoietic progenitors and all stages of megakaryopoiesis” (Oncotarget, 2016):
“Also recorded” adds a separate entry of the source.

Assays:
Assay type in all cases: cell-based, human
megakaryoblasts / MKs = assay: Apoptosis of megakaryoblasts/MKs, Annexin V flow cytometry; conditions: day 6-megakaryoblasts
Procedure: We also explored the effects of p53 stabilization at a later stage of megakaryocytic differentiation. […] Day 7-MKs were treated with 5 μM Nutlin 3a for 24 or 48 hours, which led to an increase in p53, p21, BAX, BCL2 and BCL-XL levels, confirming a functional p53 activity (Figure 6A). […] Similar results were found with day 6-megakaryoblasts treated with two doses of SAR405838 for 72 hours (Figure 6D/6E) without any major effect on the percentage of CD41^+ cells (Figure 6F). […] As shown in Figure 6D/6E, at the dose of 0.5 μM the SAR405838 induced a 50% decreased in the number of viable cells while the apoptotic cells reached 50% of the total cells. We checked if the effect of SAR405838 on MKs could be reverted by the addition of high TPO doses. CD34^+ progenitors were cultured in serum-free medium supplemented with SCF and low dose of TPO (1 ng/mL) for 6 days. Day 6-megakaryoblasts were then treated with 1.5 μM of SAR405838 for 48 hours and various doses of TPO.
In parallel, the expression of P53, BAK, BCL2L1, NOXA, PUMA, BAX, P21 and P53 were quantified by qRT-PCR related to HPRT. C. […] (n=3). […]
Apoptosis was measured by Annexin V-FITC detection kit (BD Pharmigen, San Diego, CA) and analyzed by flow cytometry on a LSRII (Becton Dickinson Mountain View, CA).

[1] = test system: Day 6 megakaryoblasts (ploidization); assay: MK ploidy by flow cytometry (CD41/CD42/vital Hoechst staining); conditions: day 6 megakaryoblasts treated 72 hours, analysed day 9; SAR405838 at 1 μM; untreated control 4.4 N
Procedure: First, we investigated if MDM2 inhibitors affect MK ploidization. SAR405838 induced a significant reduction in the mean ploidy (3.0 N at the dose of 1 μM versus 4.4 N for untreated control or for MI-219 treatment) (Supplementary Figure S1). page 1: P53 activation inhibits all types of hematopoietic progenitors and all stages of megakaryopoiesis SUPPLEMENTARY FIGURE Supplementary Figure S1: Effect of SAR405838 on polyploidization. Day 6 megakaryoblasts were treated for 72 hours with various doses of MI-219 or SAR405838. At day 9, ploidy was analyzed by flow cytometry using a CD41/CD42/vital Hoechst staining. N represents the mean ploidy. As shown, SAR405838 induced a significant reduction in the mean ploidy (3.0N at the dose of 1μM versus 4.4N for control or for MI-219 treatment). The Figure illustrates a representative experiment in triplicate. Two other experiments in triplicate gave similar results. […]

[2] = test system: day 10-MKs (proplatelet formation); assay: Proplatelet formation assay
Procedure: Then, we explored the effects of p53 stabilization on PPT formation (the step before platelet release). […] To confirm that this was due to p53 stabilization, we knocked-down p53 with 2 shRNA showing a decrease in P53 RNA and protein levels (Figure 7B/7C) and reduced expression of p53 targets (Figure 7D).
Figure 7 Effects of p53 stabilization on PPT formation A. Percentage of proplatelet-forming day 10-MKs after incubation with 0.5 or 1 μM of SAR405838 or MI-219. […] A total of 200 cells per well were counted during 4 days. Error bars in histograms represent the SD of one representative experiment performed in triplicate wells. Similar results were obtained in 3 repeated experiments. * represents statistical significance (**P<0.01). […] D. p53, MDM2, BCL-XL, BAX and p21 protein levels were analyzed in GFP^+/CD41^+ sorted cells by Western blot (at days 10 and 13 of culture). β-actin was used as loading control. […] A total of 200 cells per well were counted during 4 days (from day 11 to day 14). […]
CD41^+GFP^+ MKs were sorted at day 8 of culture and plated in 96-well plates at a concentration of 2,000 cells/well in serum-free medium containing TPO, and quantification of PPT bearing MKs was performed as previously described. […] A total of 200 cells per well were counted during 4 days. […]

CC(C)(C)C[C@@H]1N[C@@H](C(=O)N[C@H]2CC[C@H](O)CC2)[C@H](c2cccc(Cl)c2F)[C@]12C(=O)Nc1cc(Cl)ccc12 [SAR405838]
apoptotic cells, of the total cells (megakaryoblasts / MKs; 0.5 μM, 72 hours): 50%
reversal of compound-mediated MK apoptosis by increasing doses of TPO (megakaryoblasts / MKs; 1.5 μM for 48 hours, various doses of TPO): unable to revert
mean ploidy [1]: 3.0 N
PPT (proplatelet) formation ([2]; 0.5 μM): inhibited; also recorded: drastically decreased
PPT (proplatelet) formation ([2]; 1 μM): completely abrogated; also recorded: completely abolished
